Assay results from patent publication US20220323406A1, “METHODS AND COMPOSITIONS FOR DIFFERENTIATING STEM CELLS” (Massachusetts Institute of Technology, priority 2019, published 2022).

How the values were obtained:
[1] = system: ENR+CD organoids (ISC to Paneth cell differentiation); assay: Primary screen: CCh-stimulated lysozyme secretion LYZ.S, 2.5-D 384-well ENR+CD organoid differentiation; type: cell-based, mouse; details: primary screen
Excerpt: (§1) High-throughput screening.

[2] = system: ENR+CD organoids; assay: Primary screen: ATP (CellTiter-Glo 3D, CTG) cell number/viability, 2.5-D 384-well ENR+CD organoids; details: primary screen; for Z.CTG: standard z score;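 as to all read-outs here: compounds given at plating and again on day 3 over a 6-day differentiation from ENR+CV stem-cell-enriched precursors, ATP measured on day 6, plate median as control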
[3] = system: ENR+CD organoids (ISC to Paneth cell differentiation); assay: Primary screen: basal (non-stimulated) lysozyme secretion LYZ.NS, 2.5-D 384-well ENR+CD organoid differentiation; type: cell-based, mouse; details: primary screen; for Z.LYZ.NS: standard z score
Excerpt: as §1

[4] = dose 0.08 uM, FC vs plate median
[5] = dose 0.40 uM, FC vs plate median
[6] = dose 2.00 uM, FC vs plate median
[7] = dose 10.00 uM, FC vs plate median
[8] = dose 10.00 uM, FC relative to plate median
[9] = dose 0.08 uM, FC relative to plate median
[10] = dose 0.40 uM, FC relative to plate median
[11] = dose 2.00 uM, FC relative to plate median

Structure (SMILES) | Dose.FC.LYZ.S [1, 4] | Dose.FC.LYZ.S [1, 5] | Dose.FC.LYZ.S [1, 6] | Dose.FC.CTG [2, 4] | Dose.FC.CTG [2, 5] | Dose.FC.CTG [2, 6] | Z.LYZ.NS ([3]; dose 0.08 uM) | Z.LYZ.NS ([3]; dose 0.40 uM) | Z.LYZ.NS ([3]; dose 2.00 uM) | Z.LYZ.NS ([3]; dose 10.00 uM) | Dose.FC.LYZ.NS [3, 4] | Dose.FC.LYZ.NS [3, 5] | Dose.FC.LYZ.NS [3, 6] | Z.CTG ([2]; dose 0.08 uM) | Z.CTG ([2]; dose 0.40 uM) | Z.CTG ([2]; dose 2.00 uM) | Z.CTG ([2]; dose 10.00 uM) | Dose.FC.LYZ.S [1, 8] | Dose.FC.CTG [2, 8] | Dose.FC.LYZ.NS [3, 8] | also measured
CC(C)CC(=O)Nc1[nH]nc2c1CN(C(=O)C1CCN(C)CC1)C2(C)C [PHA-793887] | 0.046 log2 fold change | 0.100 log2 fold change | −0.081 log2 fold change | 0.113 log2 fold change | 0.132 log2 fold change | −0.144 log2 fold change | 0.275 | 0.085 | −1.187 | −2.324 | 0.032 log2 fold change | 0.010 log2 fold change | −0.136 log2 fold change | – | – | – | – | – | – | – | Dose.FC.LYZ.S [1, 7]: −0.292 log2 fold change; Dose.FC.CTG [2, 7]: −0.856 log2 fold change; Dose.FC.LYZ.NS [3, 7]: −0.267 log2 fold change
COc1cc(OC)c(NC(=O)Nc2cc(C)on2)cc1Cl [PNU-120596] | 0.058 log2 fold change | 0.081 log2 fold change | 0.065 log2 fold change | −0.079 log2 fold change | 0.085 log2 fold change | 0.114 log2 fold change | 0.944 | −0.098 | 0.594 | −0.525 | 0.108 log2 fold change | −0.011 log2 fold change | 0.068 log2 fold change | −0.188 | 0.204 | 0.271 | 0.330 | – | – | – | Dose.FC.LYZ.S [1, 7]: −0.049 log2 fold change; Dose.FC.CTG [2, 7]: 0.138 log2 fold change; Dose.FC.LYZ.NS [3, 7]: −0.060 log2 fold change
CC(C)(C)n1nc(-c2ccc(Cl)cc2)c2c(N)ncnc21 [PP2] | 0.058 log2 fold change | 0.145 log2 fold change | 0.113 log2 fold change | −0.693 log2 fold change | 0.130 log2 fold change | −0.382 log2 fold change | 0.285 | 0.104 | 2.354 | −0.235 | 0.033 log2 fold change | 0.012 log2 fold change | 0.270 log2 fold change | −1.655 | 0.312 | −0.913 | −0.587 | 0.027 log2 fold change | −0.246 log2 fold change | −0.027 log2 fold change | –
N#CSc1cc(SC#N)c(N)nc1N [PR-619] | – | – | – | – | – | – | 0.872 | 0.448 | 0.495 | −1.687 | – | – | – | 0.130 | 0.266 | 0.053 | −0.764 | −0.193 log2 fold change | −0.320 log2 fold change | −0.194 log2 fold change | Dose.FC.LYZ.S [1, 9]: 0.122 log2 fold change; Dose.FC.LYZ.S [1, 10]: 0.047 log2 fold change; Dose.FC.LYZ.S [1, 11]: 0.081 log2 fold change; Dose.FC.CTG [2, 9]: 0.054 log2 fold change; Dose.FC.CTG [2, 10]: 0.111 log2 fold change; Dose.FC.CTG [2, 11]: 0.022 log2 fold change; Dose.FC.LYZ.NS [3, 9]: 0.100 log2 fold change; Dose.FC.LYZ.NS [3, 10]: 0.051 log2 fold change; Dose.FC.LYZ.NS [3, 11]: 0.057 log2 fold change
Cl.NC(=O)c1cnc(N[C@@H]2CCCC[C@@H]2N)nc1Nc1cccc(-n2nccn2)c1 [PRT062607 (P505-15, BIIB057) HCl] | – | – | – | – | – | – | 0.037 | 0.194 | −0.280 | −1.837 | – | – | – | −0.219 | 0.191 | −0.179 | −0.788 | −0.298 log2 fold change | −0.330 log2 fold change | −0.211 log2 fold change | Dose.FC.LYZ.S [1, 9]: −0.033 log2 fold change; Dose.FC.LYZ.S [1, 10]: 0.122 log2 fold change; Dose.FC.LYZ.S [1, 11]: −0.123 log2 fold change; Dose.FC.CTG [2, 9]: −0.092 log2 fold change; Dose.FC.CTG [2, 10]: 0.080 log2 fold change; Dose.FC.CTG [2, 11]: −0.075 log2 fold change; Dose.FC.LYZ.NS [3, 9]: 0.004 log2 fold change; Dose.FC.LYZ.NS [3, 10]: 0.022 log2 fold change; Dose.FC.LYZ.NS [3, 11]: −0.032 log2 fold change
COc1cc(Br)c(Nc2nc(-c3c(C)nc4ncccn34)cs2)c(Br)c1 [PTC-209] | – | – | – | – | – | – | 0.294 | −0.509 | −1.753 | −1.975 | – | – | – | −0.259 | −0.495 | −3.397 | −3.708 | −0.300 log2 fold change | −1.553 log2 fold change | −0.227 log2 fold change | Dose.FC.LYZ.S [1, 9]: 0.007 log2 fold change; Dose.FC.LYZ.S [1, 10]: 0.045 log2 fold change; Dose.FC.LYZ.S [1, 11]: −0.289 log2 fold change; Dose.FC.CTG [2, 9]: −0.108 log2 fold change; Dose.FC.CTG [2, 10]: −0.207 log2 fold change; Dose.FC.CTG [2, 11]: −1.422 log2 fold change; Dose.FC.LYZ.NS [3, 9]: 0.034 log2 fold change; Dose.FC.LYZ.NS [3, 10]: −0.058 log2 fold change; Dose.FC.LYZ.NS [3, 11]: −0.201 log2 fold change
CCOC(=O)c1ccc(N2NC(=O)/C(=C/c3ccc([N+](=O)[O-])o3)C2=O)cc1 [PYR-41] | – | – | – | – | – | – | 1.305 | 0.777 | 0.568 | 0.861 | – | – | – | 0.609 | 0.762 | 0.385 | 0.229 | 0.129 log2 fold change | 0.096 log2 fold change | 0.099 log2 fold change | Dose.FC.LYZ.S [1, 9]: 0.193 log2 fold change; Dose.FC.LYZ.S [1, 10]: 0.076 log2 fold change; Dose.FC.LYZ.S [1, 11]: 0.049 log2 fold change; Dose.FC.CTG [2, 9]: 0.255 log2 fold change; Dose.FC.CTG [2, 10]: 0.319 log2 fold change; Dose.FC.CTG [2, 11]: 0.161 log2 fold change; Dose.FC.LYZ.NS [3, 9]: 0.150 log2 fold change; Dose.FC.LYZ.NS [3, 10]: 0.089 log2 fold change; Dose.FC.LYZ.NS [3, 11]: 0.065 log2 fold change
C1=N/C2=N/c3ccc(OCCN4CCCC4)c(c3)COC/C=C/COCc3cccc(c3)C(=C1)N2 [Pacritinib (SB1518)] | 0.066 log2 fold change | −0.032 log2 fold change | −0.304 log2 fold change | −0.006 log2 fold change | 0.099 log2 fold change | −0.235 log2 fold change | 0.795 | −0.299 | −1.908 | −2.391 | 0.091 log2 fold change | −0.034 log2 fold change | −0.219 log2 fold change | −0.014 | 0.236 | −0.560 | −3.047 | – | – | – | Dose.FC.LYZ.S [1, 7]: −0.419 log2 fold change; Dose.FC.CTG [2, 7]: −1.276 log2 fold change; Dose.FC.LYZ.NS [3, 7]: −0.275 log2 fold change
